# Test results from ChEMBL document CHEMBL4196033, “Potent hydrazone derivatives targeting esophageal cancer cells” (Eur J Med Chem, 2018).
# pIC50: −log10 of the molar value.
# Experiments:
# Assay type in all cases: functional, cell-based
# EC9706 = assay: Antiproliferative activity against human EC9706 cells after 72 hrs by MTT assay; conditions: EC9706, 72 h
# SMMC-7721 = assay: Antiproliferative activity against human SMMC7721 cells after 72 hrs by MTT assay; conditions: SMMC-7721, 72 h
# ECa-109 cell line = assay: Antiproliferative activity against human EC109 cells after 72 hrs by MTT assay; conditions: ECa-109, 72 h
# PC-3 = assay: Antiproliferative activity against human PC3 cells after 72 hrs by MTT assay; conditions: PC-3, 72 h
# MCF7 = assay: Antiproliferative activity against human MCF7 cells after 72 hrs by MTT assay; conditions: MCF7, 72 h
# MGC-803 = assay: Antiproliferative activity against human MGC803 cells after 72 hrs by MTT assay; conditions: MGC-803, 72 h
Compound,pIC50 (EC9706),pIC50 (SMMC-7721),pIC50 (ECa-109 cell line),pIC50 (PC-3),pIC50 (MCF7),pIC50 (MGC-803)
C/C(=N\NC(=O)c1cccc(S(=O)(=O)N2CCOCC2)c1)c1cc(O)ccc1O,5.45,< 4.00,4.67,< 4.00,< 4.00,5.04
C/C(=N\NC(=O)c1cccc(S(=O)(=O)N2CCOCC2)c1)c1ccc(O)cc1,4.15,4.05,4.05,4.44,< 4.00,4.15
C/C(=N\NC(=O)c1cccc(S(=O)(=O)N2CCOCC2)c1)c1cccc(N)c1O,5.45,5.63,5.30,5.63,6.00,6.28
O=C(N/N=C/c1cc(Br)ccc1O)c1cccc(S(=O)(=O)N2CCOCC2)c1,4.53,5.00,4.93,5.14,4.57,4.83
O=C(N/N=C/c1ccccn1)c1cccc(S(=O)(=O)N2CCOCC2)c1,4.35,< 4.00,4.25,4.05,< 4.00,4.09
NNC(=O)c1cccc(S(=O)(=O)N2CCOCC2)c1,< 4.00,–,< 4.00,–,–,–
C/C(=N\NC(=O)c1cccc(S(=O)(=O)N2CCOCC2)c1)c1ccccc1,< 4.00,< 4.00,< 4.00,< 4.00,< 4.00,< 4.00
CCOc1cccc(/C=N/NC(=O)c2cccc(S(=O)(=O)N3CCOCC3)c2)c1O,4.81,5.16,4.78,4.82,4.71,4.75
C/C(=N\NC(=O)c1cccc(S(=O)(=O)N2CCOCC2)c1)c1cc(Br)ccc1O,4.61,5.62,5.28,5.16,5.11,4.75
C/C(=N\NC(=O)c1cccc(S(=O)(=O)N2CCOCC2)c1)c1ccc(F)cc1,< 4.00,< 4.00,< 4.00,4.09,< 4.00,< 4.00
C/C(=N\NC(=O)c1cccc(S(=O)(=O)N2CCOCC2)c1)c1cccc(N)c1,< 4.00,< 4.00,< 4.00,< 4.00,< 4.00,< 4.00
O=C(N/N=C/c1ccccc1O)c1cccc(S(=O)(=O)N2CCOCC2)c1,4.71,4.92,4.84,4.86,4.54,4.60
C/C(=N\NC(=O)c1cccc(S(=O)(=O)N2CCOCC2)c1)c1ccccc1O,5.91,5.86,5.26,5.55,5.27,5.91
C/C(=N\NC(=O)c1cccc(S(=O)(=O)N2CCOCC2)c1)c1cc(F)ccc1O,5.66,5.94,5.49,5.36,5.18,5.65
O=C(N/N=C/c1ccco1)c1cccc(S(=O)(=O)N2CCOCC2)c1,< 4.00,< 4.00,< 4.00,< 4.00,< 4.00,< 4.00
O=C(N/N=C/c1cc(Br)cc(Br)c1O)c1cccc(S(=O)(=O)N2CCOCC2)c1,5.61,5.14,4.99,5.01,4.80,4.75
CCN(CC)c1ccc(/C=N/NC(=O)c2cccc(S(=O)(=O)N3CCOCC3)c2)c(O)c1,6.04,4.57,6.14,4.85,5.45,5.39
O=c1[nH]cc(F)c(=O)[nH]1 [FLUOROURACIL],5.29,4.86,5.22,5.20,4.73,5.03
O=C(N/N=C/c1cccs1)c1cccc(S(=O)(=O)N2CCOCC2)c1,< 4.00,< 4.00,< 4.00,< 4.00,< 4.00,< 4.00
C/C(=N\NC(=O)c1cccc(S(=O)(=O)N2CCOCC2)c1)c1cccc(O)c1,< 4.00,< 4.00,< 4.00,< 4.00,< 4.00,< 4.00
O=C(N/N=C/c1cc(Cl)ccc1O)c1cccc(S(=O)(=O)N2CCOCC2)c1,5.67,5.17,5.55,4.98,4.78,4.96
